The source made the active and inactive calls. The calls are words filed in the database; no cut-off is given here.
Columns and labels:
[1] = tested on: Mus musculus; assay: Inhibition of carrageenan-induced paw edema in Swiss mouse at 50 mg/kg, po pretreated for 1 hr followed by carrageenan-stimulation and measured after 6 hrs relative to control; format: functional
[2] = tested on: Mus musculus; assay: Inhibition of carrageenan-induced paw edema in Swiss mouse at 100 mg/kg, po pretreated for 1 hr followed by carrageenan-stimulation and measured after 6 hrs relative to control; format: functional
[3] = tested on: Mus musculus; assay: Inhibition of carrageenan-induced paw edema in Swiss mouse at 300 mg/kg, po pretreated for 1 hr followed by carrageenan-stimulation and measured after 6 hrs relative to control; format: functional
[4] = tested on: Mus musculus; assay: Inhibition of carrageenan-induced thermal allodynia in Swiss mouse at 50 mg/kg, po pretreated for 1 hr followed by carrageenan-stimulation and measured after 6 hrs relative to control; format: functional
[5] = tested on: Mus musculus; assay: Inhibition of carrageenan-induced thermal allodynia in Swiss mouse at 100 mg/kg, po pretreated for 1 hr followed by carrageenan-stimulation and measured after 6 hrs relative to control; format: functional
[6] = tested on: Mus musculus; assay: Inhibition of carrageenan-induced thermal allodynia in Swiss mouse at 300 mg/kg, po pretreated for 1 hr followed by carrageenan-stimulation and measured after 6 hrs relative to control; format: functional
[7] = tested on: Mus musculus; assay: Inhibition of croton oil-induced ear edema in mouse at 0.1 mg/ear administered topically pretreated for 1 hr followed by croton oil-stimulation and measured after 6 hrs relative to control; format: functional
[8] = tested on: Mus musculus; assay: Inhibition of croton oil-induced ear edema in mouse at 0.3 mg/ear administered topically pretreated for 1 hr followed by croton oil-stimulation and measured after 6 hrs relative to control; format: functional
[9] = tested on: Mus musculus; assay: Inhibition of LPS-induced TLR4 pathway assessed as reduction in paw edema in Swiss mouse at 50 mg/kg, po pretreated for 1 hr followed by LPS-stimulation and measured after 48 hrs relative to control; format: functional
[10] = tested on: Mus musculus; assay: Inhibition of zymosan-induced TLR2/Dectin-1 Signaling Pathway assessed as reduction in paw edema in Swiss mouse at 50 mg/kg, po pretreated for 1 hr followed by […] and measured after 48 hrs relative to control; format: functional
[11] = tested on: Mus musculus; assay: Inhibition of carrageenan-induced paw edema in Swiss mouse at 50 mg/kg, po pretreated for 30 mins followed by carrageenan-stimulation and co-treated with CB2R antagonist AM630 and measured after 6 hrs; format: functional, organism-based
[12] = tested on: Mus musculus; assay: Inhibition of carrageenan-induced thermal allodynia in Swiss mouse at 50 mg/kg, po pretreated for 30 mins followed by carrageenan-stimulation and co-treated with CB2R antagonist AM630 and measured after 6 hrs; format: functional, organism-based
[13] = tested on: Mus musculus; assay: Inhibition of carrageenan-induced paw edema in Swiss mouse at 50 mg/kg, po pretreated for 30 mins followed by carrageenan-stimulation and co-treated with CB1R antagonist AM281 and measured after 6 hrs; format: functional, organism-based
[14] = tested on: Mus musculus; assay: Inhibition of carrageenan-induced thermal allodynia in Swiss mouse at 50 mg/kg, po pretreated for 30 mins followed by carrageenan-stimulation and co-treated with CB1R antagonist AM281 and measured after 6 hrs; format: functional, organism-based
[15] = tested on: Mus musculus; assay: Inhibition of carrageenan-induced paw edema in Swiss mouse at 50 mg/kg, po pretreated for 30 mins followed by carrageenan-stimulation and co-treated with glibenclamide and measured after 6 hrs; format: functional, organism-based
[16] = tested on: Mus musculus; assay: Inhibition of carrageenan-induced thermal allodynia in Swiss mouse at 50 mg/kg, po pretreated for 30 mins followed by carrageenan-stimulation and co-treated glibenclamide and measured after 6 hrs; format: functional, organism-based
[17] = Psychoactive effect in Swiss mouse assessed as reduction in locomotor activity by measuring change in distance travelled at 50 mg/kg, po and measured for 6 hrs; format: ADME, organism-based; conditions: in vivo
[18] = Psychoactive effect in Swiss mouse assessed as antinociceptive effect by measuring paw withdrawal latencies at 50 mg/kg, po and measured for 6 hrs; format: ADME, organism-based; conditions: in vivo
[19] = Psychoactive effect in Swiss mouse assessed as catalepsy effect at 50 mg/kg, po and measured for 6 hrs; format: ADME, organism-based; conditions: in vivo
[20] = Psychoactive effect in Swiss mouse assessed as hypothermic effects at 50 mg/kg, po and measured for 6 hrs by thermometric method; format: ADME, organism-based; conditions: in vivo
[21] = Toxicity in Swiss mouse assessed as increase in weight gain at 5 to 2000 mg/kg, po after 14 days; format: organism-based; conditions: in vivo, 336 h
[22] = Toxicity in Swiss mouse assessed as mortality at 5 to 1000 mg/kg, po after 14 days; format: organism-based; conditions: in vivo, 336 h
[23] = Toxicity in Swiss mouse assessed as reduction in locomotion at 1000 mg/kg, po after 14 days; format: organism-based; conditions: in vivo, 336 h
[24] = Toxicity in Swiss mouse assessed as reduction in locomotion at 2000 mg/kg, po after 14 days; format: organism-based; conditions: in vivo, 336 h
[25] = Toxicity in Swiss mouse assessed as effect on touch sensitivity at 1000 mg/kg, po after 14 days; format: organism-based; conditions: in vivo, 336 h
[26] = Toxicity in Swiss mouse assessed as effect on touch sensitivity at 2000 mg/kg, po after 14 days; format: organism-based; conditions: in vivo, 336 h
[27] = Toxicity in Swiss mouse assessed as effect on respiratory movement at 1000 mg/kg, po after 14 days; format: organism-based; conditions: in vivo, 336 h
[28] = Toxicity in Swiss mouse assessed as effect on paradoxical breathing at 2000 mg/kg, po after 14 days; format: organism-based; conditions: in vivo, 336 h
[29] = Toxicity in Swiss mouse assessed as food consumption at 5 mg/kg, po after 14 days (reference value: 27.3%); format: organism-based; conditions: in vivo, 336 h
[30] = Toxicity in Swiss mouse assessed as food consumption at 50 mg/kg, po after 14 days (reference value: 27.3%); format: organism-based; conditions: in vivo, 336 h
[31] = Toxicity in Swiss mouse assessed as food consumption at 300 mg/kg, po after 14 days (reference value: 27.3%); format: organism-based; conditions: in vivo, 336 h
[32] = Toxicity in Swiss mouse assessed as food consumption at 1000 mg/kg, po after 14 days (reference value: 27.3%); format: organism-based; conditions: in vivo, 336 h
[33] = Toxicity in Swiss mouse assessed as food consumption at 2000 mg/kg, po after 14 days (reference value: 27.3%); format: organism-based; conditions: in vivo, 336 h
[34] = Toxicity in Swiss mouse assessed as water consumption at 5 mg/kg, po after 14 days (reference value: 50.5%); format: organism-based; conditions: in vivo, 336 h
[35] = Toxicity in Swiss mouse assessed as water consumption at 50 mg/kg, po after 14 days (reference value: 50.5%); format: organism-based; conditions: in vivo, 336 h
[36] = Toxicity in Swiss mouse assessed as water consumption at 300 mg/kg, po after 14 days (reference value: 50.5%); format: organism-based; conditions: in vivo, 336 h
[37] = Toxicity in Swiss mouse assessed as water consumption at 1000 mg/kg, po after 14 days (reference value: 50.5%); format: organism-based; conditions: in vivo, 336 h
[38] = Toxicity in Swiss mouse assessed as water consumption at 2000 mg/kg, po after 14 days (reference value: 50.5%); format: organism-based; conditions: in vivo, 336 h
[39] = Toxicity in Swiss mouse assessed as effect on kidney weight at 5 to 2000 mg/kg, po after 14 days; format: organism-based; conditions: in vivo, 336 h
[40] = Toxicity in Swiss mouse assessed as effect on liver weight at 5 to 2000 mg/kg, po after 14 days; format: organism-based; conditions: in vivo, 336 h
[41] = Toxicity in Swiss mouse assessed as effect on lung weight at 5 to 2000 mg/kg, po after 14 days; format: organism-based; conditions: in vivo, 336 h
[42] = Toxicity in Swiss mouse assessed as effect on heart weight at 5 to 2000 mg/kg, po after 14 days; format: organism-based; conditions: in vivo, 336 h
[43] = Toxicity in Swiss mouse assessed as effect on glucose level weight at 5 to 2000 mg/kg, po after 14 days; format: organism-based; conditions: in vivo, 336 h
[44] = Toxicity in Swiss mouse assessed as effect on blood urea nitrogen level weight at 5 to 2000 mg/kg, po after 14 days; format: organism-based; conditions: in vivo, 336 h
[45] = Toxicity in Swiss mouse assessed as effect on total cholesterol level weight at 5 to 2000 mg/kg, po after 14 days; format: organism-based; conditions: in vivo, 336 h
[46] = Toxicity in Swiss mouse assessed as effect on triglycerides level weight at 5 to 2000 mg/kg, po after 14 days; format: organism-based; conditions: in vivo, 336 h
[47] = Toxicity in Swiss mouse assessed as effect on total protein level weight at 5 to 2000 mg/kg, po after 14 days; format: organism-based; conditions: in vivo, 336 h
[48] = Toxicity in Swiss mouse assessed as effect on ALT level weight at 5 to 2000 mg/kg, po after 14 days; format: organism-based; conditions: in vivo, 336 h
[49] = Toxicity in Swiss mouse assessed as effect on creatinine level weight at 5 to 2000 mg/kg, po after 14 days; format: organism-based; conditions: in vivo, 336 h
[50] = Toxicity in Swiss mouse assessed as effect on AST level weight at 5 to 2000 mg/kg, po after 14 days; format: organism-based; conditions: in vivo, 336 h
[51] = Toxicity in Swiss mouse assessed as effect on ALP level weight at 5 to 2000 mg/kg, po after 14 days; format: organism-based; conditions: in vivo, 336 h
[52] = Toxicity in Swiss mouse assessed as effect on uric acid level weight at 5 to 2000 mg/kg, po after 14 days; format: organism-based; conditions: in vivo, 336 h
[53] = tested on: Mus musculus; assay: Inhibition of carrageenan-induced paw edema in Swiss mouse at 1.5 mg/kg, ip pretreated for 30 mins followed by carrageenan-stimulation and measured after 6 hrs; format: functional, organism-based
[54] = Psychoactive effect in Swiss mouse assessed as reduction in locomotor activity by measuring change in distance travelled at 1.5 mg/kg, ip and measured for 6 hrs; format: ADME, organism-based; conditions: in vivo
[55] = Psychoactive effect in Swiss mouse assessed as antinociceptive effect by measuring paw withdrawal latencies at 1.5 mg/kg, ip and measured for 6 hrs; format: ADME, organism-based; conditions: in vivo
[56] = Psychoactive effect in Swiss mouse assessed as catalepsy effect at 1.5 mg/kg, ip and measured for 6 hrs; format: ADME, organism-based; conditions: in vivo
[57] = Psychoactive effect in Swiss mouse assessed as hypothermic effects at 1.5 mg/kg, ip and measured for 6 hrs by thermometric method; format: ADME, organism-based; conditions: in vivo

With `CC(C)=CCCC(C)=CC=O` (mixture of isomers) the inhibition in vivo at 50 mg/kg [1] was 57%, the inhibition in vivo at 100 mg/kg [2] was 70% and the inhibition in vivo at 300 mg/kg [3] was 66%. The inhibition in vivo at 50 mg/kg [4] was 62%, the inhibition in vivo at 100 mg/kg [5] was 80% and the inhibition in vivo at 300 mg/kg [6] was 62%. For the same compound, the “inhibition (INH)” value [7] was 22%, the “inhibition (INH)” value [8] was 83% and the inhibition in vivo at 50 mg/kg [9] was 70%. For the same compound, the inhibition in vivo at 50 mg/kg [10] was 45%, the inhibition [11] was “inactive” and the inhibition [12] was “inactive”. The inhibition [13] was “Active”, the inhibition [14] was “Active” and the inhibition [15] was “inactive”. For the same compound, the inhibition [16] was “inactive”, the Activity [17] was “Non-Toxic” and the Activity [18] was “Non-Toxic”. For the same compound, the Activity [19] was “Non-Toxic”, the Activity [20] was “Non-Toxic” and the Activity [21] was “Non-Toxic”. For the same compound, the Activity [22] was “Non-Toxic”, the Activity [23] was “Non-Toxic” and the Activity [24] was “Non-Toxic”. The Activity [25] was “Non-Toxic”, the Activity [26] was “Non-Toxic” and the Activity [27] was “Non-Toxic”. For the same compound, the Activity [28] was “Non-Toxic”, the Activity [29] was 31.2% and the Activity [30] was 21.4%. For the same compound, the Activity [31] was 28.1%, the Activity [32] was 28.1% and the Activity [33] was 8.8%. The Activity [34] was 44.4%, the Activity [35] was 37.5% and the Activity [36] was 36%. For the same compound, the Activity [37] was 40%, the Activity [38] was 15.6% and the Activity [39] was “Non-Toxic”. For the same compound, the Activity [40] was “Non-Toxic”, the Activity [41] was “Non-Toxic” and the Activity [42] was “Non-Toxic”. For the same compound, the Activity [43] was “Non-Toxic”, the Activity [44] was “Non-Toxic” and the Activity [45] was “Non-Toxic”. The Activity [46] was “Non-Toxic”, the Activity [47] was “Non-Toxic” and the Activity [48] was “Non-Toxic”. For the same compound, the Activity [49] was “Non-Toxic”, the Activity [50] was “Non-Toxic” and the Activity [51] was “Non-Toxic”. For the same compound, the Activity [52] was “Non-Toxic”.
With `Cc1c(C(=O)c2cccc3ccccc23)c2cccc3c2n1[C@H](CN1CCOCC1)CO3` [WIN-552122] the inhibition [53] was “Active”, the Activity [54] was “Toxic” and the Activity [55] was “Toxic”. The Activity [56] was “Toxic” and the Activity [57] was “Toxic”.
